US12358902B2, “5-(2,5-bis(4-chloro-2-isopropylphenyl)thiophen-3-yl)-1H-tetrazole for the topical treatment of bacterial infections” (DENOVAMED INC., priority 2017, dated 2025)

Assays:
E. coli AcpS = biological target: T1, E. coli AcpS (Escherichia coli, UniProt P24224); experiment: MIC shift upon AcpS over-expression in E. coli strain D22; assay type: cell-based; details: E. coli D22 over-expressing E. coli AcpS, IPTG inducible
T1 construct: expressed in transfected cells; host or cells: E. coli strain D22 (porous outer membrane)
T1 sequence (P24224 whole entry): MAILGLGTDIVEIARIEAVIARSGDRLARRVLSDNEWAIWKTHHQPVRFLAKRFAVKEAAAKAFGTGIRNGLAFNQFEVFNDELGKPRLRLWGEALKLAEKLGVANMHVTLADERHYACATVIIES
Excerpt: (§1) To determine if AcpS inhibition is the main in vivo target that results in bacterial killing by 5-(2,5-bis(4-chloro-2-isopropylphenyl)thiophen-3-yl)-1H-tetrazole, we over-expressed AcpS in bacteria. An E. coli strain genetically engineered to have a porous outer membrane (strain D22) was transformed with a plasmid expressing either E. coli or S. aureus AcpS under control of an IPTG inducible promoter.

S. aureus AcpS = experiment: as above; assay type: cell-based; details: E. coli D22 over-expressing S. aureus AcpS, IPTG inducible
Excerpt: as §1

fatty acid synthase = experiment: in vitro enzyme assay, selectivity; assay type: biochemical; details: ACP utilizing bacterial enzyme
[1] = system: mupirocin resistant strains of S. epidermidis; experiment: activity against mupirocin resistant strains; assay type: cell-based
[2] = dermal pharmacokinetics on full thickness human cadaver skin (Franz cells); assay type: in vitro ADME; details: 2% w/w in GLAXAL BASE
Excerpt: Full thickness human skin was taken from the torso of a post-mortem human donor and stores at −80 degrees Celsius. On the day of the study, skin pieces were thawed for at least […] at room temperature in saline, then divided into individual pieces of approximately 2 cm length×2 cm width from which seven pieces of full thickness skin was selected. Approximately ⅔ of the width of the hypodermis layer was trimmed in order to mount the selected pieces into Franz cells. Receiver buffer was prepared (Krebs-Ringer bicarbonate buffer containing 10 mM HEPES, 15 mM sodium bicarbonate, and 1.2 mM calcium chloride; adjusted to pH 7.4 and fortified with 0.1% sodium azide and 1% bovine serum albumin). Each piece was equilibrated for 30 min with 12 mL of receiver buffer at 32 degrees Celsius by a water-jacket/stirring module running at 600 rpm. Transepithelial water loss was read for each piece after 30 mins using a vapometer. Exposed surface area of the piece was 1.77 square cm.
Approximately 300 ul of 5-(2,5-bis(4-chloro-2-isopropylphenyl)thiophen-3-yl)-1H-tetrazole formulated in 2% w/w GLAXAL BASE™ (Emollient Cream) was applied directly through syringe on top of each piece. Receiver samples were taken from the receiver compartment of each Franz cell at 3, 6, 12, 18, and 24 hours and replaced with an equal volume of fresh, warm buffer to maintain sink conditions. At the end of 24 hours, the bulk amount of formulation remaining on each piece of skin was wiped using cotton tips, stored together in a dry vial for analysis. Epidermis and dermis were then separated gently using forceps after a brief heat treatment at 60 degrees Celsius for no longer than 2 minutes. Each layer was then blotted dry, weighted and stored in separate glass vials. All samples were stored at −80 degrees Celsius until analysis by LC/MS-MS.
The cumulative concentrations of 5-(2,5-bis(4-chloro-2-isopropylphenyl)thiophen-3-yl)-1H-tetrazole that permeated at each time point were calculated by the sum of the measured concentration at that time point plus 1/12 of the measured concentrations at the previous time points (since 1 mL out of the 12 mL total receiver volume is withdrawn and replaced each time). The flux values over the course of the 24 hour permeation period were calculated from the slope of the linear portion of the curve. Flux was represented by the equation Flux=d[(Cr-T×Vr)/dt/A where Cr-T is the cumulative concentration at each time point (ng/mL); Vr is 12 mL; t is duration in hours; and A is the surface area of 1.77 square cm.

USA300 MRSA strain = experiment: bactericidal activity; assay type: cell-based
AcpS = AcpS enzyme activity assay; assay type: biochemical, S. aureus and E. coli; details: [3H]-labeled holo-ACP formation
Procedure: The acpS gene was amplified from S. aureus and E. coli genomic DNA and inserted into a pET23b vector using standard recombinant DNA methodology such that the protein product would result in addition of a C-terminal 6×-His tag in frame with the AcpS open reading frames. […] Recombinant His-Tagged AcpS expression was induced by IPTG addition and overnight culture. Cell lysate was obtained by sequential aspiration through 16, 18 and 21 G needles in a buffer of 50 mM Tris-HCl (pH 8.5), 10 mM MgCl2, 2 mM DTT, 5% glycerol, and further adjusted to pH 8.1 with MES. […] In a typical AcpS enzyme activity assay, 57 μM [^3H]-labeled acyl-CoA, 2 μg apo-ACP, 10 mM MgCl2, 5 mM DTT, 50 mM Na phosphate (pH 7.0), and AcpS in a final volume of 10 μL were incubated at room temperature in a 1.5 mL microcentrifuge tube. At 5, 10, 15, and 20 minutes 2 μL of reaction were added to 750 μL 10% TCA on ice. Bovine serum albumin (BSA; 20 μl of a 25 mg/ml solution) was then added to facilitate precipitation of radiolabeled protein. The samples were centrifuged at 12 000 rcf for 5 min. […] 2 mL of scintillation fluid was added, and the amount of [^3H]-labeled holo-ACP formed was quantified by liquid scintillation counting. Each data point (remaining AcpS enzyme activity) was expressed as a percentage of vehicle control, with the median value of four time points presented.

[3] = end of 24 hour permeation, LC-MS/MS

CC(C)c1cc(Cl)ccc1-c1cc(-c2nnn[nH]2)c(-c2ccc(Cl)cc2C(C)C)s1 [Test Article, 5-(2,5-bis(4-chloro-2-isopropylphenyl)thiophen-3-yl)-1H-tetrazole]
shift of MIC to higher concentration upon increased AcpS expression (E. coli AcpS): 32 fold
shift of MIC to higher concentration upon increased AcpS expression (S. aureus AcpS): 16 fold
inhibition of fatty acid synthase (fatty acid synthase): did not inhibit
activity [1]: retained activity
Flux from top through to bottom of skin ([2]; 24 hour permeation period): less than 0.141 ng/hr/cm^2
compound in the receiver samples ([2]; end of 24 hour permeation period, lower limit of detection 0.5 ng/mL): no detectable
level in dermis [2, 3]: 0.821±0.469 ng per mg tissue
level in epidermis [2, 3]: 163±58.0 ng per mg tissue
level in hypodermis [2, 3]: 1.86±1.04 ng per mg tissue
bactericidal activity (USA300 MRSA strain): rapidly bactericidal
AcpS inhibition (AcpS): inhibited
